Test results published in the NIST ThermoML archive (doi:10.1021/acs.jced.5b00814).
Numbers after ± are expanded uncertainties.

Experiments:
[1] = Crystal; DTA
[2] = Molar enthalpy of transition or fusion; conditions: Crystal; DSC

Normal melting temperature [1]: 133.00 ± 0.7 °C
Molar enthalpy of transition or fusion [2]: 5.31 ± 0.203 kcal/mol
SMILES: O=C(O)/C=C/c1ccccc1 [(E)-cinnamic acid]
